This is an account of results in patent publication US20010012854A1, “MULTICATALYTIC PROTEASE INHIBITORS FOR USE AS ANTI-TUMOR AGENTS” (priority 1997, published 2001).

In general, IC50 refers to the concentration that inhibits the measured activity by half.

The subject of assay [1] is Lewis Lung carcinoma xenografts. Briefly: In vivo growth of Lewis Lung carcinoma xenografts in athymic nude mice. On the set-up: species or system murine. To be noted: 3 mg/kg, s.c., QD, 5 days a week, 12 days. As to the method: Female athymic nude mice were injected s.c. with 1×10^6 Lewis Lung carcinoma cells into the right rear flank. Upon tumors achieving 150 to 200 mm^3 in volume, mice were randomized into groups of ten animals each and dosing commenced with Compound I (2 mg/kg, s.c., QD, 5 days a week), Compound J (3 mg/kg, s.c., QD, 5 days a week), or vehicle alone (30% Solutol) for a total of 12 days. Tumor measurements (volume) were determined with vernier calipers in two dimensions every two to three days. Statistical analyses of drug-associated anti-tumor efficacy relative to vehicle-treated controls were conducted using the Mann-Whitney Rank sum test.

Assay [2] has as its system PANC-1 pancreatic carcinoma. Briefly: Calcein-AM viability assay, PANC-1. It is filed as cell-based. As to conditions: Homo sapiens. The procedure: (§1) Cells were initially seeded in 96-well plates at varying density, then assayed using the Calcein-AM viability assay after 24 hours to determine the optimal final density for each cell type. Cells were then seeded in 96-well plates at this density in 100 μL of the proper cell media as follows:
(§2) Serial dilutions of the compounds were made so that concentrations were twice the desired concentration to be evaluated. When 100 μL of the dilution was then added to the cells plated in 100 μL of media, a final concentration of 0, 11.7, 46.9, 187.5, 375 and 750 nM was obtained. Compounds were added to the plates three to four hours after seeding the cells, then the plates were incubated at 37° C. for the desired time point (generally one, two, or three day incubations).
(§3) Calcein-AM viability assays were conducted at the desired time points as follows. Media were aspirated using a manifold and metal plate to leave approximately 50 μL/well. The wells were then washed three times with 200 μL DPBS (Gibco), aspirating each time with the manifold to leave 50 μL/well. A 8 μM solution of Calcein-AM (Molecular Probes) in DPBS was prepared and 150 μL was added to each well. The plates were then incubated at 37° C. for 30 minutes. […] After the final aspiration, fluorescence was measured using a Cytofluor 2300 fluorescence plate reader. […]

For assay [3], the system named is SKMEL-5 melanoma. Nature of the assay: Calcein-AM viability assay, SKMEL-5. It is filed as cell-based. As to conditions: Homo sapiens, SK-MEL-5. As to the method: as §1, §2, §3
In assay [4] the test system is OVCAR-3 ovarian carcinoma. Nature of the assay: Calcein-AM viability assay, OVCAR-3. It is filed as cell-based. As to conditions: Homo sapiens. The procedure:
as §1, §2, §3

Assay [5] has as its system MCF-7 breast carcinoma. Briefly: Calcein-AM viability assay, MCF-7. Format: cell-based. To be noted: Homo sapiens, MCF7. As to the method:
as §1, §2, §3

The subject of assay [6] is Lewis lung (murine) lung carcinoma. Nature of the assay: Calcein-AM viability assay, Lewis Lung. It is filed as cell-based. As to conditions: Mus musculus. The procedure: as §1, §2, §3
The subject of assay [7] is AT-2 (rat) prostatic carcinoma. Briefly: Calcein-AM viability assay, AT-2. It is filed as cell-based. The procedure: as §1, §2, §3
Assay [8] relates to DU145 prostatic carcinoma. Briefly: Calcein-AM viability assay, DU-145. It is filed as cell-based. To be noted: Homo sapiens. As to the method:
as §1, §2, §3

The target of assay [9] is MCP chymotrypsin-like activity (Homo sapiens, UniProt P28074). Nature of the assay: Inhibition of MCP chymotrypsin-like activity. It is filed as biochemical. An excerpt: (§4) The rank-order potency for Jurkat cell killing precisely matched the order for MCP inhibition (Table 2, below).
Inhibition of the chymotrypsin-like activity of MCP by the disclosed MCP inhibitors has been reported, but these MCP inhibitors produced relatively little inhibition on the MCP trypsin-like activity and cathepsin B, a vacuolar cysteine protease (Iqbal, M., et al. J. Med Chem. 38: 2276-2277, 1995; Iqbal, M., et al. Bioorg. Med. Chem. Lett. 6: 287-290, 1996; and Harding, C. V., et al. J. Immuno. 155: 1767-1775, 1995). Furthermore, the order of potency for inhibition of the chymotrypsin-like activity was reported to be Compound A>Compound B>Compound C by using both isolated MCP and intact murine B cells (Iqbal, M., et al. J. Med Chem. 38: 2276-2277, 1995; Iqbal, M., et al. Bioorg. Med. Chem. Lett. 6: 287-290, 1996; and Harding, C. V., et al. J. Immuno. 155: 1767-1775, 1995).

The test system of assay [10] is Jurkat Human T Cell Leukemia Line. Briefly: Jurkat cell viability assay (XTT reduction). It is filed as cell-based. As to conditions: Jurkat cells, 24 hours, viability by XTT reduction, read-out: Toxicity (IC50). The procedure:
f. Cell viability assay. Jurkat cells were treated with MCP inhibitors or vehicle for 30 min. at 37° C. Next, ionomycin (1 μM) and the phorbol ester PMA (10 ng/ml) were added, together with 0.2% ethanol. After 24 h, cell viability was assessed by reduction of XTT (Sigma, X4251). To each well, 50 μl of XTT (1 mg/ml) and 25 μl PMS (Sigma 9625, 5 mM) were added. After 3 h at 37° C., the OD of each well was read at 450 nm/690 nm by a plate reader.
as §4

The test system of assay [11] is murine melanoma cell line, B16-F0. Briefly: In vivo B16-F0 melanoma tumor growth in C57BL mice. As to conditions: 10 mg/kg/day, ip. The procedure:
a. Materials: MCP inhibitors used for in vivo studies (Compounds D and E) were each formulated in 25% Solutol.
b. Cell line: The murine melanoma cell line, B16-F0, was grown at 37° C. in a humidified incubator, with a 95% air/5% CO2 atmosphere, in Dulbecco's modified Eagle's medium with 4.5 g/l glucose (Cellgro/Mediatech, Washington, D.C.) containing 10% fetal bovine serum (Hyclone Labs, Logan, Utah), 2 mM glutamine (GibcoBRL, Long Island, N.Y.), penicillin (100 I.U./mL) (GibcoBRL), and streptomycin (100 μg/mL) (GibcoBRL). The cells were determined to be free of mycoplasma and rodent viruses (MAP testing). Exponentially growing cells were harvested using 5 mL of warm trypsin/EDTA (0.05%, 0.5 mM)((GibcoBRL). The total volume was brought up to 10 mL with Complete Medium to neutralize trypsin and cells were counted with a hemocytometer. The cells were then collected by brief centrifugation and the cell pellet was resuspended in Phosphate Buffered Saline (GibcoBRL) to achieve the final concentration of 1×10^7 live cells/ml.
c. Animals: Female C57BL mice (20-25 g) obtained from Harlan Sprague Dawley, Indianapolis, Ind. were maintained five mice/cage and given a commercial diet and water ad libitum. […]
e. Tumor measurements: Tumors were measured using a vernier caliper every 2 to 3 days. Tumor volume was calculated using the formula: […]

Bounds are passed on as bounds.

Turning to `CC(C)C[C@@H](NC(=O)[C@H](CCCN/C(N)=N/[N+](=O)[O-])NC(=O)C(CCCCCCCCN1C(=O)c2ccccc2C1=O)C1CCCC1)B1O[C@H]2CC3CC(C3(C)C)C2(C)O1` (stereo partly shown) [Compound J], in assay [1], the “Lung carcinoma tumor growth (tumor volume)” value is reported as “inhibit lung carcinoma tumor growth”. Further, the IC50 in assay [2] (PANC-1, 24 h) is above 1000 nM; in assay [2] (PANC-1, 72 h), 185 nM; in assay [3] (SKMEL-5, 24 h), 427 nM; in assay [3] (SKMEL-5, 72 h) it was 82 nM; in assay [4] (OVCAR-3, 24 h), above 1000 nM; in [4] (OVCAR-3, 72 h), 29 nM. The IC50 in assay [5] (MCF-7, 24 h) was above 1000 nM; in [5] (MCF-7, 72 h), 289 nM; in assay [6] (24 h), 411 nM; in [6] (72 h), 505 nM; in assay [7] (AT-2, 24 h), above 1000 nM; in assay [7] (AT-2, 72 h), above 1000 nM. Also, the IC50 in assay [8] (DU-145, 24 h) is 385 nM; in assay [8] (DU-145, 72 h) it was 167 nM.
Take `CC(C)C[C@H](NC(=O)[C@H](CCCNC(N)=N[N+](=O)[O-])NC(=O)C(CCCCCCCCC#N)C1CCCC1)B(O)O` (stereo partly shown) [D]: the IC50 in assay [9] was found to be 5 nM; in [10], 600 nM. Moreover, in assay [11], the “Melanoma tumor growth (tumor volume)” value is “inhibit melanoma tumor growth”.
On to `CC(C)C[C@H](NC(=O)[C@H](CCCN/C(N)=N/[N+](=O)[O-])NC(=O)C(CCCCCCCCN1C(=O)c2ccccc2C1=O)C1CCCC1)B(O)O` (stereo partly shown) [E], for which the “Melanoma tumor growth (tumor volume)” value in assay [11] is recorded as “inhibit melanoma tumor growth”.
